From patent publication US20090018148A1, “Xanthine Derivatives, Processes For Preparing Them And Their Uses” (UCB PHARMA, S.A., priority 2005, published 2009)

Row | melting point | Compound
1 | 115 °C | CCOC(=O)C(CC)Sc1nc2c(c(=O)[nH]c(=O)n2C)n1Cc1cccc(OC)c1 (racemic) [Compound 12, ethyl 2-{[7-(3-methoxybenzyl)-3-methyl-2,6-dioxo-2,3,6,7-tetrahydro-1H-purin-8-yl]thio}butanoate]
2 | 147 °C | CCOC(=O)C(CC)Sc1nc2c(c(=O)[nH]c(=O)n2C)n1Cc1cccc([N+](=O)[O-])c1 (racemic) [Compound 13, ethyl 2-{[3-methyl-7-(3-nitrobenzyl)-2,6-dioxo-2,3,6,7-tetrahydro-1H-purin-8-yl]thio}butanoate]
3 | 107 °C | CCOC(=O)C(CC)Sc1nc2c(c(=O)[nH]c(=O)n2C)n1Cc1cccc(N)c1 (racemic) [Compound 14, ethyl 2-{[7-(3-aminobenzyl)-3-methyl-2,6-dioxo-2,3,6,7-tetrahydro-1H-purin-8-yl]thio}butanoate]
4 | 175.2 °C | CCOC(=O)C(CC)Sc1nc2c(c(=O)[nH]c(=O)n2C)n1Cc1ccc(S(N)(=O)=O)cc1 (racemic) [Compound 15, ethyl 2-({7-[4-(aminosulfonyl)benzyl]-3-methyl-2,6-dioxo-2,3,6,7-tetrahydro-1H-purin-8-yl}thio)butanoate]
5 | 208 °C | CCOC(=O)C(CC)Sc1nc2c(c(=O)[nH]c(=O)n2C)n1Cc1c(C)noc1C (racemic) [Compound 20, ethyl 2-({7-[(3,5-dimethylisoxazol-4-yl)methyl]-3-methyl-2,6-dioxo-2,3,6,7-tetrahydro-1H-purin-8-yl}thio)butanoate]
6 | 172 °C | CCOC(=O)C(CC)Sc1nc2c(c(=O)[nH]c(=O)n2C)n1Cc1ccc([N+](=O)[O-])o1 (racemic) [Compound 21, ethyl 2-({3-methyl-7-[(5-nitro-2-furyl)methyl]-2,6-dioxo-2,3,6,7-tetrahydro-1H-purin-8-yl}thio)butanoate]
7 | 104 °C | CCCCn1c(SC(CC)C(=O)OCC)nc2c1c(=O)[nH]c(=O)n2C (racemic) [Compound 22, ethyl 2-[(7-butyl-3-methyl-2,6-dioxo-2,3,6,7-tetrahydro-1H-purin-8-yl)thio]butanoate]
8 | 87 °C | CCCCCCn1c(SC(CC)C(=O)OCC)nc2c1c(=O)[nH]c(=O)n2C (racemic) [Compound 25, ethyl 2-[(7-hexyl-3-methyl-2,6-dioxo-2,3,6,7-tetrahydro-1H-purin-8-yl)thio]butanoate]
9 | 132 °C | CCOC(=O)C(CC)Sc1nc2c(c(=O)[nH]c(=O)n2C)n1CC(C)C (racemic) [Compound 31, ethyl 2-[(7-isobutyl-3-methyl-2,6-dioxo-2,3,6,7-tetrahydro-1H-purin-8-yl)thio]butanoate]

Further lines, the compound ahead of its results:

Row | Compound | melting point
10 | CCOC(=O)C(CC)Sc1nc2c(c(=O)n(C)c(=O)n2C)n1Cc1ccccc1 (racemic) [Compound 1, ethyl 2-[(7-benzyl-1,3-dimethyl-2,6-dioxo-2,3,6,7-tetrahydro-1H-purin-8-yl)thio]butanoate] | 72 °C
11 | CCOC(=O)C(CC)Sc1nc2c(c(=O)n(CCOC)c(=O)n2C)n1Cc1cccc(Br)c1 (racemic) [Compound 3, ethyl 2-{[7-(3-bromobenzyl)-1-(2-methoxyethyl)-3-methyl-2,6-dioxo-2,3,6,7-tetrahydro-1H-purin-8-yl]thio}butanoate] | 58 °C
12 | CCOC(=O)C(CC)Sc1nc2[nH]c(=O)[nH]c(=O)c2n1Cc1cccc(Br)c1 (racemic) [Compound 4, ethyl 2-{[7-(3-bromobenzyl)-2,6-dioxo-2,3,6,7-tetrahydro-1H-purin-8-yl]thio}butanoate] | 90.1 °C
13 | CCOC(=O)C(CC)Sc1nc2c(c(=O)n(C)c(=O)n2C)n1Cc1cccc(Br)c1 (racemic) [Compound 5, ethyl 2-{[7-(3-bromobenzyl)-1,3-dimethyl-2,6-dioxo-2,3,6,7-tetrahydro-1H-purin-8-yl]thio}butanoate] | 76 °C
14 | CCOC(=O)C(CC)Sc1nc2c(c(=O)n(C)c(=O)n2C)n1Cc1ccccc1Br (racemic) [Compound 6, ethyl 2-{[7-(2-bromobenzyl)-1,3-dimethyl-2,6-dioxo-2,3,6,7-tetrahydro-1H-purin-8-yl]thio}butanoate] | 101 °C
15 | CCOC(=O)C(CC)Sc1nc2c(c(=O)n(CC#N)c(=O)n2C)n1Cc1cccc(Br)c1 (racemic) [Compound 7, ethyl 2-{[7-(3-bromobenzyl)-1-(cyanomethyl)-3-methyl-2,6-dioxo-2,3,6,7-tetrahydro-1H-purin-8-yl]thio}butanoate] | 84 °C
16 | C#CCn1c(=O)c2c(nc(SC(CC)C(=O)OCC)n2Cc2cccc(Br)c2)n(C)c1=O (racemic) [Compound 11, ethyl 2-{[7-(3-bromobenzyl)-3-methyl-2,6-dioxo-1-(2-propynyl)-2,3,6,7-tetrahydro-1H-purin-8-yl]thio}butanoate] | 97 °C
17 | CCC(Sc1nc2c(c(=O)[nH]c(=O)n2C)n1Cc1cccc(Br)c1)C(N)=O (racemic) [Compound 27, 2-{[7-(3-bromobenzyl)-3-methyl-2,6-dioxo-2,3,6,7-tetrahydro-1H-purin-8-yl]thio}butanamide] | 244.15 °C
18 | CCCCn1c(SC(CC)C(N)=O)nc2c1c(=O)[nH]c(=O)n2C (racemic) [Compound 28, 2-[(7-butyl-3-methyl-2,6-dioxo-2,3,6,7-tetrahydro-1H-purin-8-yl)thio]butanamide] | 253 °C
19 | CCC(CC)Sc1nc2c(c(=O)[nH]c(=O)n2C)n1Cc1cccc(Br)c1 [Compound 29, 7-(3-bromobenzyl)-8-[(1-ethylpropyl)thio]-3-methyl-3,7-dihydro-1H-purine-2,6-dione] | 167 °C
